Results: patent US20250136606A1, “MODULATORS OF TRPML, THEIR COMPOSITIONS AND METHODS OF USE” (Caraway Therapeutics, Inc., priority 2021, published 2025)

Tests used:
Format in all cases: cell-based
TRPML3 = molecular target: T1, TRPML3 (Homo sapiens, UniProt Q8TDD5); test: Fluorescent TRPML3 assay (performed as for TRPML1, substituting the TRPML3 subtype)
T1 construct: expressed in transfected cells
T1 sequence (Q8TDD5 1-553): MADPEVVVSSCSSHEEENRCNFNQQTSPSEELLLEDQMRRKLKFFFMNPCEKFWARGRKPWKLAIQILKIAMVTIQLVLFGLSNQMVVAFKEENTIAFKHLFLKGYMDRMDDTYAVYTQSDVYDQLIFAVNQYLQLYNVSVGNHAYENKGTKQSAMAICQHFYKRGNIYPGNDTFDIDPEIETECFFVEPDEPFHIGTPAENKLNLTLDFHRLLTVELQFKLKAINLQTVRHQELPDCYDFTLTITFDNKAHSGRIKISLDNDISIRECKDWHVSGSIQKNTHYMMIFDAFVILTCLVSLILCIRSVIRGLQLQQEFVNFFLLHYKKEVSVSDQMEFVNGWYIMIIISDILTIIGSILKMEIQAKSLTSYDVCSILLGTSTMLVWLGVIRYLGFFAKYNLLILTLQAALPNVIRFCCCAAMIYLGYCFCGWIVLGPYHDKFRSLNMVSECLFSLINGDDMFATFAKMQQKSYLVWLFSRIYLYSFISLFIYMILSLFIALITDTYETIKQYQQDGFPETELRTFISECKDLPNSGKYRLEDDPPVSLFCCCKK
Procedure, shortened: (§1)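 HEK-293 Trex cells with doxycycline-induced (0.5 ug/mL) surface-directed human TRPML subtype, loaded with 1 μM Fluo4-AM, resuspended in Ringer's with 10 mM calcium. Compounds at 20 μM to 6 nM final in half-log steps, triplicate; fluorescence ex 480/em 540; EC50 by non-linear regression versus plate controls.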

TRPML2 = molecular target: T2, TRPML2 (Homo sapiens, UniProt Q8IZK6); test: Fluorescent TRPML2 assay (performed as for TRPML1, substituting the TRPML2 subtype)
T2 construct: expressed in transfected cells
T2 sequence (Q8IZK6 1-566): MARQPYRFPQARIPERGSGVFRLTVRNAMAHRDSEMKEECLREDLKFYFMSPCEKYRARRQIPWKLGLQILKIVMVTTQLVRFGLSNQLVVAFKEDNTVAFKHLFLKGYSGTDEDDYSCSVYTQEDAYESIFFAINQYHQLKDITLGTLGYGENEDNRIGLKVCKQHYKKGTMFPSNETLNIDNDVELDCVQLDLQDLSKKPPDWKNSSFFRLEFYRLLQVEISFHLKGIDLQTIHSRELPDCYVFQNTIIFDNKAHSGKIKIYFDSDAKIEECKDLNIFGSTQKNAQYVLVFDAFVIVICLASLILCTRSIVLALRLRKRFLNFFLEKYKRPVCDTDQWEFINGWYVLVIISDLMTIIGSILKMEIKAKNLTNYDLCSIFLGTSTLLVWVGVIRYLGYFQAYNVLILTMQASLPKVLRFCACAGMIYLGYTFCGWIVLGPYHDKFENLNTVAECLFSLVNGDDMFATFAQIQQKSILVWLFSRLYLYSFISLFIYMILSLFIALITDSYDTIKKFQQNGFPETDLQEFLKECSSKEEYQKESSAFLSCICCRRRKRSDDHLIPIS
Procedure, shortened: as §1

TRPML1 = TRPML1 (Homo sapiens, UniProt Q9GZU1); test: Fluorescent TRPML1 assay (Fluo4-AM calcium fluorescence in doxycycline-induced HEK-293 Trex cells)
Sequence of TRPML1 (Q9GZU1 whole entry L15A/L16A/L577A/L578A, form open): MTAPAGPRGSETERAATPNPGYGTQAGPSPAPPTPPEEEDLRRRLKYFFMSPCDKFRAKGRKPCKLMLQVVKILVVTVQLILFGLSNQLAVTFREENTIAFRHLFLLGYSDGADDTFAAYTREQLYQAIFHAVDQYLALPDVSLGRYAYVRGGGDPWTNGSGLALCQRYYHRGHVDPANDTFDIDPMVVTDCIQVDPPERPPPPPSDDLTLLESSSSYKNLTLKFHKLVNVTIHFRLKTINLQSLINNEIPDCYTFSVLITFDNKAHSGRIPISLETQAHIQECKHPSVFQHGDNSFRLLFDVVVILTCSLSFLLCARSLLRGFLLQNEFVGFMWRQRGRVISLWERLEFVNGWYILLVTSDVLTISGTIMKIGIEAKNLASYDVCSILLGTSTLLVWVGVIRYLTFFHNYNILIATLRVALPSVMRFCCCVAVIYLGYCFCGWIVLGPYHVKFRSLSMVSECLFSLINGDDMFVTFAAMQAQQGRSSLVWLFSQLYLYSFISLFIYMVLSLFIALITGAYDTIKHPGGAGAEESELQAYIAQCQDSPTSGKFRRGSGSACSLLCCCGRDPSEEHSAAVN
Procedure, shortened: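 First, expression of surface-targeted mutant human TRPML1 is induced in HEK-293 Trex cells with 0.5 ug/mL doxycycline the day before. Next, cells take up 1 micromolar Fluo4-AM in Ringer's with 0.1% Pluronic. Finally, they are added to compounds (6 nanomolar–20 micromolar final) in 10 mM calcium Ringer's and fluorescence is read.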

## C[C@@H]1CN(c2ncnc3c2c(C(F)(F)F)cn3-c2cc(C#N)ccn2)[C@@H](C)CN1C(=O)OC1(C)CCC1 [Compound 535, 1-methylcyclobutyl (2R,5S)-4-(7-(4-cyanopyridin-2-yl)-5-(trifluoromethyl)-7H-pyrrolo[2,3-d]pyrimidin-4-yl)-2,5-dimethylpiperazine-1-carboxylate]
TRPML3
  EC50: < 100 nM
TRPML2
  EC50: < 100 nM
TRPML1
  EC50: < 100 nM

## C[C@@H]1CN(c2ncnc3c2c(C(F)(F)F)cn3-c2cc(C(F)(F)F)ccn2)[C@@H](C)CN1C(=O)OC(C)(C)C [Compound 536, tert-butyl (2R,5S)-2,5-dimethyl-4-(5-(trifluoromethyl)-7-(4-(trifluoromethyl)pyridin-2-yl)-7H-pyrrolo[2,3-d]pyrimidin-4-yl)piperazine-1-carboxylate]
TRPML3
  EC50: < 100 nM
TRPML2
  EC50: < 100 nM
TRPML1
  EC50: < 100 nM

## Cc1cn(-c2cc(C(F)(F)F)ccn2)c2ncnc(N3C[C@@H](C)N(C(=O)OC(C)(C)C)C[C@@H]3C)c12 [Compound 537, tert-butyl (2R,5S)-2,5-dimethyl-4-(5-methyl-7-(4-(trifluoromethyl)pyridin-2-yl)-7H-pyrrolo[2,3-d]pyrimidin-4-yl)piperazine-1-carboxylate]
TRPML3
  EC50: < 100 nM
TRPML2
  EC50: < 100 nM
TRPML1
  EC50: < 100 nM

## [2H]C([2H])([2H])C(OC(=O)N1C[C@H](C)N(c2ncnc3c2c(C(F)F)cn3-c2cc(C#N)ccn2)C[C@H]1C)(C([2H])([2H])[2H])C([2H])([2H])[2H] [Compound 538, 2-(methyl-d3)propan-2-yl-1,1,1,3,3,3-d6 (2R,5S)-4-(7-(4-cyanopyridin-2-yl)-5-(difluoromethyl)-7H-pyrrolo[2,3-d]pyrimidin-4-yl)-2,5-dimethylpiperazine-1-carboxylate]
TRPML3
  EC50: < 100 nM
TRPML2
  EC50: 100 to 500 nM
TRPML1
  EC50: < 100 nM

## CC(C)(C)OC(=O)N1CCN(c2ncnc3c2c(N2CCCC2)cn3-c2cc(C#N)ccn2)C(C)(C)C1 [Compound 601, tert-butyl 4-(7-(4-cyanopyridin-2-yl)-5-(pyrrolidin-1-yl)-7H-pyrrolo[2,3-d]pyrimidin-4-yl)-3,3-dimethylpiperazine-1-carboxylate]
TRPML3
  EC50: < 100 nM
TRPML2
  EC50: 100 to 500 nM
TRPML1
  EC50: < 100 nM

## [2H]C([2H])([2H])C(OC(=O)N1C[C@@H](C)N(c2ncnc3c2c(C(F)(F)F)cn3-c2cc(C#N)ccn2)C[C@H]1C)(C([2H])([2H])[2H])C([2H])([2H])[2H] [Compound 602, 2-(methyl-d3)propan-2-yl-1,1,1,3,3,3-d6 (2R,5R)-4-(7-(4-cyanopyridin-2-yl)-5-(trifluoromethyl)-7H-pyrrolo[2,3-d]pyrimidin-4-yl)-2,5-dimethylpiperazine-1-carboxylate]
TRPML3
  EC50: 100 to 500 nM
TRPML2
  EC50: 500 to 2000 nM
TRPML1
  EC50: < 100 nM

## [2H]C([2H])([2H])C(OC(=O)N1C[C@H](C)N(c2ncnc3c2c(C(F)(F)F)cn3-c2cc(C#N)ccn2)C[C@@H]1C)(C([2H])([2H])[2H])C([2H])([2H])[2H] [Compound 603, 2-(methyl-d3)propan-2-yl-1,1,1,3,3,3-d6 (2S,5S)-4-(7-(4-cyanopyridin-2-yl)-5-(trifluoromethyl)-7H-pyrrolo[2,3-d]pyrimidin-4-yl)-2,5-dimethylpiperazine-1-carboxylate]
TRPML3
  EC50: < 100 nM
TRPML2
  EC50: 500 to 2000 nM
TRPML1
  EC50: < 100 nM

## C[C@@H]1CN(c2ncnc3c2c(C(F)(F)F)cn3-c2cc(C#N)ccn2)[C@@H](C)CN1C(=O)OC1(C(F)(F)F)CCC1 [Compound 604, 1-(trifluoromethyl)cyclobutyl (2R,5S)-4-(7-(4-cyanopyridin-2-yl)-5-(trifluoromethyl)-7H-pyrrolo[2,3-d]pyrimidin-4-yl)-2,5-dimethylpiperazine-1-carboxylate]
TRPML3
  EC50: < 100 nM
TRPML2
  EC50: 100 to 500 nM
TRPML1
  EC50: < 100 nM

## C[C@@H]1CN(c2ncnc3c2c(C(F)F)cn3-c2cc(C#N)ccn2)[C@@H](C)CN1C(=O)OC1(C)CCC1 [Compound 605, 1-methylcyclobutyl (2R,5S)-4-(7-(4-cyanopyridin-2-yl)-5-(difluoromethyl)-7H-pyrrolo[2,3-d]pyrimidin-4-yl)-2,5-dimethylpiperazine-1-carboxylate]
TRPML3
  EC50: < 100 nM
TRPML2
  EC50: 100 to 500 nM
TRPML1
  EC50: < 100 nM

## C[C@@H]1CN(c2ncnc3c2c(C(F)F)cn3-c2cccc(Cl)c2)[C@@H](C)CN1C(=O)OC1(C)CC1 [Compound 608, 1-methylcyclopropyl (2R,5S)-4-(7-(3-chlorophenyl)-5-(difluoromethyl)-7H-pyrrolo[2,3-d]pyrimidin-4-yl)-2,5-dimethylpiperazine-1-carboxylate]
TRPML3
  EC50: < 100 nM
TRPML2
  EC50: > 2000 nM
TRPML1
  EC50: 100 to 500 nM

## CC(C)(C)OC(=O)N1CCN(c2ncnc3c2c(C(F)F)cn3-c2cc(C#N)ccn2)CC1 [Compound 609, tert-buty1 4-(7-(4-cyanopyridin-2-yl)-5-(difluoromethyl)-7H-pyrrolo[2,3-d]pyrimidin-4-yl)piperazine-1-carboxylate]
TRPML3
  EC50: < 100 nM
TRPML2
  EC50: 500 to 2000 nM
TRPML1
  EC50: < 100 nM

## [2H]C([2H])([2H])[C@@H]1CN(c2ncnc3c2c(C(F)F)cn3-c2cc(C#N)ccn2)[C@@H](C)CN1C(=O)OC(C)(C)C [Compound 610, tert-butyl (2R,5S)-4-(7-(4-cyanopyridin-2-yl)-5-(difluoromethyl)-7H-pyrrolo[2,3-d]pyrimidin-4-yl)-5-methyl-2-(methyl-d3)piperazine-1-carboxylate]
TRPML3
  EC50: < 100 nM
TRPML2
  EC50: 500 to 2000 nM
TRPML1
  EC50: < 100 nM

## C[C@H]1CN(C(=O)OC(C)(C)C)CCN1c1nccc2c1c(C1(C)CC1)cn2-c1cc(C#N)ccn1 [Compound 612, tert-butyl (S)-4-(1-(4-cyanopyridin-2-yl)-3-(1-methylcyclopropyl)-1H-pyrrolo[3,2-c]pyridin-4-yl)-3-methylpiperazine-1-carboxylate]
TRPML3
  EC50: 100 to 500 nM
TRPML2
  EC50: 500 to 2000 nM
TRPML1
  EC50: < 100 nM

## C[C@@H]1CN(c2ncnc3c2c(C(F)F)cn3-c2cc(C#N)ccn2)[C@@H](C)CN1C(=O)OC1(C(F)(F)F)CCC1 [Compound 614, 1-(trifluoromethyl)cyclobutyl (2R,5S)-4-(7-(4-cyanopyridin-2-yl)-5-(difluoromethyl)-7H-pyrrolo[2,3-d]pyrimidin-4-yl)-2,5-dimethylpiperazine-1-carboxylate]
TRPML3
  EC50: < 100 nM
TRPML2
  EC50: 100 to 500 nM
TRPML1
  EC50: < 100 nM

## CC1CC1c1cn(-c2cc(C#N)ccn2)c2ncnc(N3CCN(C(=O)OC(C)(C)C)C[C@@H]3C)c12 (stereo partly drawn) [Compound 615, tert-butyl (3S)-4-(7-(4-cyanopyridin-2-yl)-5-(2-methylcyclopropyl)-7H-pyrrolo[2,3-d]pyrimidin-4-yl)-3-methylpiperazine-1-carboxylate]
TRPML3
  EC50: < 100 nM
TRPML2
  EC50: < 100 nM
TRPML1
  EC50: < 100 nM

## CC1CC1c1cn(-c2cccc(C#N)c2)c2ncnc(N3CCN(C(=O)OC(C)(C)C)C[C@@H]3C)c12 (stereo partly drawn) [Compound 616]
TRPML3
  EC50: < 100 nM
TRPML2
  EC50: < 100 nM
TRPML1
  EC50: < 100 nM

## C[C@@H]1CN(c2ncnc3c2c(CC(F)(F)F)cn3-c2nccc(C#N)n2)[C@@H](C)CN1C(=O)OC(C)(C)C [Compound 617, tert-butyl (2R,5S)-4-(7-(4-cyanopyrimidin-2-yl)-5-(2,2,2-trifluoroethyl)-7H-pyrrolo[2,3-d]pyrimidin-4-yl)-2,5-dimethylpiperazine-1-carboxylate]
TRPML3
  EC50: 100 to 500 nM
TRPML2
  EC50: > 2000 nM
TRPML1
  EC50: < 100 nM
